Assays:
Test in all cases: Method of dilutions in liquid medium (MIC)
Type in all cases: cell-based
Details in all cases: 24 hours at 37° C.
Entero faecalis 02D2UC5 = test system: Entero faecalis 02D2UC5
Experimental: (§1) A—Method of dilutions in liquid medium A series of tubes is prepared in which the same quantity of sterile nutritive medium is distributed. Increasing quantities of the product to be studied are distributed into each tube, then each tube is sown with a bacterial strain. After incubation for twenty-four hours in an oven at 37° C., the growth inhibition is evaluated by transillumination, which allows the minimal inhibitory concentrations (M.I.C.) to be determined, expressed in micrograms/cm^3. Activity in vitro MIC in μg/ml

Entero faecium 02D3IP2 = test system: Entero faecium 02D3IP2
Experimental: as §1

Staph. aureus 011HT18 = test system: Staph. aureus 011HT18
Experimental: as §1

[1] = test system: Staph. coag. negative 012HT5
Experimental: as §1

[2] = test system: Staph. epidermidis 0126042
Experimental: as §1

[3] = test system: Strepto. pneumoniae 030BI2
Experimental: as §1

Strepto. pyogene 02A1UC1 = test system: Strepto. pyogene 02A1UC1
Experimental: as §1

Compound | Activity in vitro MIC (Entero faecalis 02D2UC5) [µg/mL] | Activity in vitro MIC (Entero faecium 02D3IP2) [µg/mL] | Activity in vitro MIC (Staph. aureus 011HT18) [µg/mL] | Activity in vitro MIC [1] [µg/mL] | Activity in vitro MIC [2] [µg/mL] | Activity in vitro MIC [3] [µg/mL] | Activity in vitro MIC (Strepto. pyogene 02A1UC1) [µg/mL]
C#CCONC(=O)O[C@H]1[C@@H](O)[C@H](Oc2ccc3c(O)c(C(N)=O)c(=O)oc3c2C)OC(C)(C)[C@@H]1OC [Ex. 1, (2-propynyloxy)-carbamic 3′ester of 7-[[6-deoxy-5-C-methyl-4-O-methyl-alpha-L-lyxo-hexopyranosyl]oxy]-4-hydroxy-8-methyl-2-oxo-2H-1-benzopyran-3-carboxamide acid] | 0.3 | 0.08 | 0.04 | 0.3 | 0.04 | 0.04 | 0.6
C#CCONC(=O)O[C@H]1[C@@H](O)[C@H](Oc2ccc3c(O)c(C(=O)NCCN4CCOCC4)c(=O)oc3c2C)OC(C)(C)[C@@H]1OC [Ex. 2, 7-[(6-deoxy-5-C-methyl-4-O-methyl-alpha-L-lyxo-hexopyranosyl)oxyl]-4-hydroxy-8-methyl-N-[2-(4-morpholinyl)ethyl]-2-oxo-2H-1-benzopyrane-3-carboxamide (2-propynyloxy)-carbamic 3′-ester acid] | 1.2 | 0.6 | 0.04 | 0.04 | 0.04 | 0.08 | 0.3
C#CCONC(=O)O[C@H]1[C@@H](O)[C@H](Oc2ccc3c(O)c(C(C)=NOC)c(=O)oc3c2C)OC(C)(C)[C@@H]1OC [Ex. 3, 7-[[6-deoxy-5-C-methyl-4-O-methyl-alpha-L-lyxo-hexopyranosyl]oxy]-4-hydroxy-3-[1-(methoxyimino)ethyl]-8-methyl-2H-1-benzopyran-2-one(2-propynyloxy)-carbamic-3′-ester acid] | 1.2 | 1.2 | 0.04 | 0.15 | 0.04 | 0.08 | 0.6
C#CCONC(=O)O[C@H]1[C@@H](O)[C@H](Oc2ccc3c(O)c(C(C)=NOCC)c(=O)oc3c2C)OC(C)(C)[C@@H]1OC [Ex. 4, 7-[(6-deoxy-5-C-methyl-4-O-methyl-alpha-L-lyxo-hexopyranosyl)oxy]-3-[1-(ethoxyimino)ethyl]-4-hydroxy-8-methyl-2H-1-benzopyran-2-one(2-propynyloxy)-carbamic 3′-ester acid] | 1.2 | 1.2 | 0.04 | 0.15 | 0.15 | 0.15 | 0.6

Source: US6420538B1, “Aromatic amides, preparation method and application as medicines” (Aventis Pharma S.A., priority 1998, dated 2002)
